Assay results as given in patent publication US9504248B2, “Antimicrobial composition” (Rohm and Haas Company, priority 2011, dated 2016).
Values after ≈ are worked out from the molar mass of the structure shown.

Tested on: Escherichia coli (E. coli - ATCC #10536)
Assay: High resolution MBC synergy assay in phosphate buffer containing 35% dipropylene glycol, 15 seconds (Example 2)
Format: cell-based
Settings: 15 s, complete kill; phosphate buffer with 35% DPG
Method: In this Example, a wide range of combinations of chemicals was tested by conducting high resolution MBC assays of monosubstituted phenols in the presence of various concentrations of terpineol. […] High resolution MBCs were determined by adding varying amounts of microbicide to one column of a microtiter plate and doing subsequent […] dilutions using an automated liquid handling system to obtain a series of endpoints ranging from 0.002% to 1% of the test compound. The MBC plate was inoculated one column at a time with the test microorganism. An aliquot of the inoculated well was transferred at 15 seconds to a plate containing a neutralizing agent (D/E Neutralizing Broth), mixed and held for 5 minutes before being transferred to a growth plate containing trypticase soy broth (TSB). The TSB plate was incubated at 37° C. and read for the presence/absence of growth at 24 hours.
This microorganism is representative of natural contaminants in many consumer and industrial applications.

Going from `Oc1ccccc1Cc1ccccc1` [2-benzylphenol] to `Oc1ccc(Cc2ccccc2)cc1` [4-benzylphenol], the “MBC of first component alone (MBCA; Ca at Cb = 0)” value (“MBC of first component alone” below) falls from 0.6 weight % to 0.5 weight %.

Going from `Oc1ccccc1C1CCCC1` [2-cyclopentylphenol] to `Oc1ccc(C2CCCC2)cc1` [4-cyclopentylphenol], the “MBC of first component alone” value falls from 0.8 weight % to 0.6 weight %.

Compared with `CCCc1ccccc1O` [2-n-propylphenol], `CCC(C)c1ccccc1O` (centres unmarked) [2-sec-butylphenol] is lower in “MBC of first component alone” value: 0.3 weight % for the first, 0.2 weight % for the second.

Compared with `CC(C)(C)c1ccccc1O` [2-tert-butylphenol], `CCCc1cccc(O)c1` [3-n-propylphenol] is lower in “MBC of first component alone” value: 0.2 weight % for the first, 0.05 weight % for the second.

First: CCCc1ccc(O)cc1 [4-n-propylphenol]
Second: CCCCCc1ccc(O)cc1 [4-pentylphenol]
The “MBC of first component alone” value of the first is lower: 0.3 weight % for the first, 1.0 weight % for the second.

`CC1=CCC(C(C)(C)O)CC1` (stereo not drawn) [alpha-terpineol] was tested, and the “MBC of second component (terpineol) alone (MBCB; Cb at Ca = 0)” value was 0.6 weight %.

Tested on: Escherichia coli (E. coli - ATCC #10536)
Assay: Automated assessment of efficacy in surfactant base, 15 seconds exposure, OD450/OD590 readout (Example 4)
Format: cell-based
Settings: Escherichia coli, ATCC10536, 15 s; in 2.85% sodium cocoyl glycinate + 1.85% sodium lauroamphoacetate solution at pH 10; 15 s
Method: In these examples, the efficacy of combinations of monosubstituted phenols and terpineol were tested in a surfactant cleansing formulation comprising 2.85% sodium cocoyl glycinate and 1.85% sodium lauroamphoacetate. This corresponds to a 50% in use dilution with water of a typical neat formulation containing 5.7% cocoyl glycinate and 3.7% % sodium lauroamphoacetate during hand washing. Solutions were prepared such that the concentrations of the surfactant components and test actives were 1.1 times the final desired concentration in order to allow for dilution with the bacterial inoculum in the test. The solutions were manually adjusted to pH 10.0 by dropwise addition of sodium hydroxide solution, as measured with a pH meter at ambient temperature. Solutions of the monosubstituted phenols and/or terpineols were prepared at a maximum of 24 hours before testing. The same terpineol was used as in Example 1.
The efficacy of the combinations of the present invention was determined against the same bacterium as in Example 1, Escherichia coli (E. coli—ATCC #10536), at a concentration of approximately 1×10^8 bacteria per mL.
Tests were conducted using standard microtiter plate assays using an automated liquid handling system. 270 μl of the surfactant test solution was pipetted into each well of the microtitre plate (Nunc F Gamma Irradiated 96F untreated microtitre plates of clear polystyrene) and 30 μl of the bacterial suspension was then added. After exactly 15 seconds of bacterial exposure, a 30 μl volume of bacterial cells was withdrawn and transferred to 270 μl of D/E quench solution. After 5 minutes in the D/E quench, the optical density (OD) was measured for each plate in turn at two specific wavelengths (450 nm and 590 nm). These provide a dual check of antimicrobial activity, as the OD450 reading is specific for the yellow colour of D/E quench when bacterial growth is observed, whereas OD590 is specific for the initial purple colour of the D/E quench which is retained if no bacterial growth is observed. After the time zero OD measurements, plates were then incubated at 37° C. overnight (16 hours) before repeating the OD measurements. Delta OD values were calculated by subtracting […] at time=16 hours. Bacterial growth is observed as an increase in OD450 and a decrease in OD590. To identify antibacterially efficacious systems (those preventing appreciable bacterial growth after incubation), the following threshold changes in OD readings have been adopted: if (1). OD450 increases by less than 0.2 absorbance unit (AU) on incubation and (2). OD590 decreases by less than 0.35 AU on incubation. Conversely, where OD450 increases by more than […] after incubation, corresponding to a colour shift from purple to yellow, the test system allows bacterial growth and is not deemed efficacious. Four replicate measurements in the same plate have been made for each test system. The number of replicate wells showing either bacterial growth or no growth is also readily assessed by eye by following the colour change. Thymol and terpineol were tested both alone and in combination for comparison purposes.
In some selected cases, the combinations were also tested at the weight ratio 1:1.
The surfactants used are not themselves antimicrobially active against E. coli at the concentrations employed as shown by the results of Ex. (4:1) in Table 24. Thus, any antimicrobial efficacy can be ascribed to the monosubstituted phenols and/or terpineol. Table 25 presents MBC-values determined similarly as described for Example 1.

`Oc1ccccc1Cc1ccccc1` [2-benzylphenol] and `Oc1ccc(Cc2ccccc2)cc1` [4-benzylphenol] cannot be ordered by MBC: > 2000 µg/mL for the first, > 2000 µg/mL for the second.

`Oc1ccccc1C1CCCC1` [2-cyclopentylphenol] and `Oc1ccc(C2CCCC2)cc1` [4-cyclopentylphenol] cannot be ordered by MBC: > 2000 µg/mL for the first, > 2000 µg/mL for the second.

Going from `CCC(C)c1ccccc1O` (centres unmarked) [2-sec-butylphenol] to `CC(C)(C)c1ccccc1O` [2-tert-butylphenol], the MBC falls from > 2000 µg/mL to 1750 µg/mL.

Compared with `CCCc1cccc(O)c1` [3-n-propylphenol], `CCCCCc1ccc(O)cc1` [4-pentylphenol] is higher in MBC: 1750 µg/mL for the first, > 2000 µg/mL for the second.

Same assay, conditions: cocoyl glycinate and lauroamphoacetate

In the case of `Oc1ccccc1Cc1ccccc1` [2-benzylphenol], the “antimicrobial action in combination with terpineol in the presence of surfactant (in words)” value (from here on “antimicrobial action in combination”) is reported as “enhanced antimicrobial action”.
For `Oc1ccccc1C1CCCC1` [2-cyclopentylphenol], the “antimicrobial action in combination” value was “enhanced antimicrobial action”.
With `CCCc1ccccc1O` [2-n-propylphenol] the “antimicrobial action in combination” value was “enhanced antimicrobial action”.
For `CCC(C)c1ccccc1O` (centres unmarked) [2-sec-butylphenol], the “antimicrobial action in combination” value was “enhanced antimicrobial action”.
In the case of `CC(C)(C)c1ccccc1O` [2-tert-butylphenol], the “antimicrobial action in combination” value is reported as “enhanced antimicrobial action”.
With `CCCc1cccc(O)c1` [3-n-propylphenol] the “antimicrobial action in combination” value was “enhanced antimicrobial action”.
With `Oc1ccc(Cc2ccccc2)cc1` [4-benzylphenol] the “antimicrobial action in combination” value was “enhanced antimicrobial action”.
`CCCc1ccc(O)cc1` [4-n-propylphenol] was tested, and the “antimicrobial action in combination” value was “enhanced antimicrobial action”.

Tested on: Escherichia coli (10536 strain)
Assay: 15 second contact suspension kill assay (Example 1 protocol, also Example 3)
Format: cell-based
Settings: Escherichia coli, 15 s; component alone; lowest tested concentration giving zero bacterial survival after 15 s; upper boundary; read-out: Minimum biocidal concentration (MBC)
From the text: The efficacies of antimicrobial agents can be usefully compared by determining the Minimum Biocidal Concentration (MBC). The MBC is defined as the lowest absolute concentration of the particular active that provides complete kill (zero bacterial growth). The differing behaviours of inhibitory antimicrobtals in Isolation and mixtures have been widely explored using the concept of the Fractional Concentration and Fractional Inhibitory Concentration (FIC). See for instance J R W Lambert and R Lambert, J. Appl. Microblol 95, 734 (2003); T. Jadavji. C G Prober and R Cheung. Antimicrobial Agents and Chemotherapy 26, 91 (1984), and WO 2004/006876. These parameters can be defined as follows:
[formula] [formula] By analogy the Fractional Biocidal Concentration (FBC) is given by:
Antimicrobial efficacy is tested against a representative pathogenic bacterial organism, Gram negative Escherichia coli. Concentrations of actives are expressed in terms of the percentage weight/volume (% w/v) throughout Example 1.
An overnight culture of Escherichia coli (10536 strain) was prepared in 50 ml total volume of TSB broth, grown for ca. 18 hrs at 37° C. and shaken at 150 rpm. 1 ml of this overnight E. coli culture was transferred to 50 ml of fresh TSB broth and incubated at 37° C. at 150 rpm for ca. 4 hours. This culture was separated into equal volumes and centrifuged at 4000 rpm for 15 minutes, washed with sterile saline (0.85% NaCl), centrifuged once more and re-suspended in saline to give a final concentration of 0.8 OD620 equivalent to about 10^8 cells per milliliter for this particular organism. Here, OD620 indicates the absorbance of a sample in a cuvette of 1.0 cm path length at a wavelength of 620 nm. This bacterial stock was used for assaying against antimicrobial actives (in triplicate).
The following assay describes the testing of 8 materials using 6 dilutions across half of a 96-well micro titre plate (MTP). Using this approach it is possible to assay 16 actives (without replicates) with one full dilution plate, replicating this set up in two halves of the plate columns, 1-6 and 7-12.
1M solutions of the test actives were prepared in dimethylsulphoxide (DMSO).
Aliquots (270 μl) of the materials at 1.11 times the final concentration were dispensed into the wells of the MTP along one column (A1-H1). This MTP was labelled as the “Screening plate”.
In another MTP, labelled as the “Dilution plate”, 270 μl of D/E neutralising solution from DIFCO Composition was added to column 1. The composition of the neutralising solution was as follows: pancreatic digest of casein, 5.0 g/L; Yeast Extract, 2.5 g/L; Dextrose, 10 g/L, sodium thioglycollate, 1.0 g/L, sodium thiosulphate, 6.0 g/L; sodium bisulphite, 2.5 g/L; Polysorbate 80, 5.0 g/L; lecithin 7.0 g/L; bromocresol purple, 0.02 g/L with a pH in the range 7.6±0.2.
270 μl of tryptone diluent solution was added to all the remaining wells of the Dilution MTP (columns 2-6).
Bacterial stock (30 μl) was then added to the prepared 270 μl of the solution of actives in the Screening Plate and mixed, using a multichannel pipette with 8 tips to aspirate and dispense the same volume of bacterial stock in parallel to 8 wells in rows A-H. After a contact time of 15 seconds, the mixtures were quenched by transferring 30 μl volumes of the mixtures into the 270 μl D/E neutralising solution in the prepared dilution plate, using aspiration to mix. After exactly 5 minutes in the DIE neutralising solution, 30 μl volumes were transferred from column 1 to column 2 of the Dilution MTP and mixed, before transferring further 30 μl volumes from column 2 into column 3. This process was repeated serially diluting the bacteria across the plate to column 6.
30 μl volumes from each well in the Dilution MTP were transferred onto pre-labelled segment of Tryptone Soya Agar (TSA) plates starting from the lowest bacterial concentration (highest dilution, column 6) to the highest bacterial concentration (column 1).

`Oc1ccccc1Cc1ccccc1` [2-benzylphenol] and `Oc1ccc(Cc2ccccc2)cc1` [4-benzylphenol] are the same in MBC: 500 µg/mL (≈ 2.71 mM) for the first, 500 µg/mL (≈ 2.71 mM) for the second.

`Oc1ccccc1C1CCCC1` [2-cyclopentylphenol] and `Oc1ccc(C2CCCC2)cc1` [4-cyclopentylphenol] are within 1.5-fold of each other in MBC: 1000 µg/mL (≈ 6.16 mM) for the first, 800 µg/mL (≈ 4.93 mM) for the second.

`CCC(C)c1ccccc1O` (centres unmarked) [2-sec-butylphenol] and `CC(C)(C)c1ccccc1O` [2-tert-butylphenol] are the same in MBC: 500 µg/mL (≈ 3.33 mM) for the first, 500 µg/mL (≈ 3.33 mM) for the second.

Going from `CCCc1ccc(O)cc1` [4-n-propylphenol] to `CCCCCc1ccc(O)cc1` [4-pentylphenol], the MBC falls from 750 µg/mL (≈ 5.51 mM) to 250 µg/mL (≈ 1.52 mM) (3-fold).
